PubChem BioAssay AID256 (DTP/NCI, 2004)
Inconclusive results and toxic doses are left out. How the source made its calls: active means survival T/C of 150% or more; inactive means T/C below 125% in these data.

Tested on: CD2F1 mice, L1210 leukemia ip, survival T/C
Experiment: NCI In Vivo Anticancer Drug Screen. Data for tumor model L1210 Leukemia (intraperitoneal) in CD2F1 (CDF1) mice
Settings: higher = longer survival
Procedure, shortened: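 Read-out first: treated-group measurement over vehicle-control measurement, expressed as a ratio. Animals bore a transplanted tumor line and were dosed with compound or vehicle.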

Measured: T/C

C=Cc1nnnn1C12CC3CC(CC(C3)C1)C2
inactive: endpoint: mean survival time, dose: 50.0 mg/kg/injection, schedule: Q01DX001 (ip), vehicle: saline with Tween-80 106 % of control | endpoint: mean survival time, dose: 100.0 mg/kg/injection, schedule: Q01DX001 (ip), vehicle: saline with Tween-80 112 % of control

O=C(C=C(C(F)(F)F)C(F)(F)F)c1ccccc1Cl
inactive: endpoint: mean survival time, dose: 12.5 mg/kg/injection, schedule: Q01DX009 (ip), vehicle: saline with Tween-80 103 % of control | endpoint: mean survival time, dose: 25.0 mg/kg/injection, schedule: Q01DX009 (ip), vehicle: saline with Tween-80 102 % of control

CS(=O)(=O)OCC1OC(n2ccc(NC(=O)c3ccccc3)nc2=O)CC1OS(C)(=O)=O (centres undefined)
inactive: endpoint: median survival time, dose: 12.5 mg/kg/injection, schedule: Q01DX005 (ip), vehicle: saline with Tween-80 108 % of control | endpoint: median survival time, dose: 25.0 mg/kg/injection, schedule: Q01DX005 (ip), vehicle: saline with Tween-80 100 % of control | endpoint: median survival time, dose: 50.0 mg/kg/injection, schedule: Q01DX005 (ip), vehicle: saline with Tween-80 107 % of control | endpoint: median survival time, dose: 100.0 mg/kg/injection, schedule: Q01DX005 (ip), vehicle: saline with Tween-80 103 % of control | endpoint: median survival time, dose: 200.0 mg/kg/injection, schedule: Q01DX005 (ip), vehicle: saline with Tween-80 97 % of control

C=C(C)C12CC(COC(=O)c3ccccc3)C34OC5(OC1C3C1OC1(COC(=O)CCCCCCCCCCCCCCC)C(O)C1(O)C(OC(=O)c3ccccc3)C(C)C(C(C)CCCCCCC5O)C14)O2 (centres undefined)
inactive: endpoint: mean survival time, dose: 6.3 micrograms/kg/injection, schedule: Q01DX009 (ip), vehicle: saline 107 % of control | endpoint: mean survival time, dose: 12.5 micrograms/kg/injection, schedule: Q01DX009 (ip), vehicle: saline 103 % of control | endpoint: mean survival time, dose: 25.0 micrograms/kg/injection, schedule: Q01DX009 (ip), vehicle: saline 102 % of control | endpoint: mean survival time, dose: 50.0 micrograms/kg/injection, schedule: Q01DX009 (ip), vehicle: saline 105 % of control

COc1cc2c(cc1OC)C1=NN(c3ccccc3)C(=O)C1CC2 (centres undefined)
inactive: endpoint: mean survival time, dose: 100.0 mg/kg/injection, schedule: Q04DX002 (ip), vehicle: saline with Tween-80 103 % of control | endpoint: mean survival time, dose: 200.0 mg/kg/injection, schedule: Q04DX002 (ip), vehicle: saline with Tween-80 95 % of control | endpoint: mean survival time, dose: 400.0 mg/kg/injection, schedule: Q04DX002 (ip), vehicle: saline with Tween-80 95 % of control

Nc1nc2c(ncn2-c2cccc(NC(=O)CBr)c2)c(=O)[nH]1
inactive: endpoint: mean survival time, dose: 37.5 mg/kg/injection, schedule: Q01DX001 (ip), vehicle: saline with Tween-80 95 % of control | endpoint: mean survival time, dose: 75.0 mg/kg/injection, schedule: Q01DX001 (ip), vehicle: saline with Tween-80 100 % of control | endpoint: mean survival time, dose: 150.0 mg/kg/injection, schedule: Q01DX001 (ip), vehicle: saline with Tween-80 92 % of control
